Values of other authors in patent publication US6455574B1, “Therapeutic combination” (Pfizer Inc., priority 1997, dated 2002).

Legend:
[1] = tested on: smooth muscle cell migration; settings: see International Patent Application Number PCT/EP95/00847
calcium channel = settings: see International Patent Application Number PCT/EP94/02697

SMILES	inhibition of smooth muscle cell migration [1]	calcium channel blocking activity (calcium channel)
CCOC(=O)C1=C(COCCN)NC(C)=C(C(=O)OC)[C@H]1c1ccccc1Cl (single isomer, unassigned) [R(+) isomer]	potent inhibitor	little or no
CCOC(=O)C1=C(COCCN)NC(C)=C(C(=O)OC)[C@@H]1c1ccccc1Cl (single isomer, unassigned) [S(−) isomer]		substantially confined to the S(−) isomer
